The structures appear in SMILES notation.

Two molecules from patent US20150176079A1, “MARKERS FOR CANCER” (OSLO UNIVERSITETSSYKEHUS HF, priority 2007, published 2015) can be followed below.

Format in all cases: cell-based
Assay [1] relates to MAL mRNA expression in colon cancer cell lines. Briefly: Real-time quantitative gene expression of MAL in colon cancer cell lines after drug treatment. The method, then: Six colon cancer cell lines, HCT15, HT29, SW48, SW480, RKO and LS1034 were subjected to treatment with the demethylating drug 5-aza-2′deoxycytidine (1 μM for 72 h and 10 uM for 72 h), the histone deacetylase inhibitor trichostatin A (0.5 μM for 12 h) and a combination of both (1 μM 5-aza-2′deoxycytidine for 72 h, 0.5 μM trichostatin A added the last 12 h). Total RNA was extracted from cell lines (n=46), tumours (n=16), and normal tissue (n=3) using Trizol (Invitrogen, Carlsbad, Calif., USA) and the RNA concentration was determined using ND-1000 Nanodrop (NanoDrop Technologies, Wilmington, Del., USA). For each sample, total RNA was converted to cDNA using a High-Capacity cDNA Archive kit (Applied Biosystems), including random primers. MAL (Hs00242749_m1 and Hs00360838_m1) and the endogenous controls ACTB (Hs99999903_m1) and GUSB (Hs99999908_m1) were amplified separately in 96 well fast plates following the recommended protocol (Applied Biosystems), and the real time quantitative gene expression was measured by the 7900HT Sequence Detection System (Applied Biosystems). All samples were analyzed in triplicate, and the median value was used for data analysis. The human universal reference RNA (containing a mixture of RNA from ten different cell lines; Stratagene) was used to generate a standard curve, and the resulting quantitative expression levels of MAL were normalized against the mean value of the two endogenous controls.

Assay [2] relates to MAL promoter methylation in colon cancer cell lines. Briefly: Methylation-specific PCR (MSP) of the MAL promoter in colon cancer cell lines after drug treatment. The note with it: colon cancer cell lines HT29 and HCT15 (FIG. 9). As to the method: Six colon cancer cell lines, HCT15, HT29, SW48, SW480, RKO and LS1034 were subjected to treatment with the demethylating drug 5-aza-2′deoxycytidine (1 μM for 72 h and 10 uM for 72 h), the histone deacetylase inhibitor trichostatin A (0.5 μM for 12 h) and a combination of both (1 μM 5-aza-2′deoxycytidine for 72 h, 0.5 μM trichostatin A added the last 12 h). DNA from primary tumours and normal mucosa samples was bisulphite treated as previously described. DNA from colon cancer cell lines was bisulphite treated using the EpiTect bisulphite kit (Qiagen Inc., Valencia, Calif., USA). The promoter methylation status of all genes was analyzed by methylation-specific polymerase chain reaction (MSP) using the HotStarTaq DNA polymerase (Qiagen). All results were confirmed with a second independent round of MSP. Human placental DNA (Sigma Chemical Co, St. Louis, Mo., USA) treated in vitro with SssI methyltransferase (New England Biolabs Inc., Beverly, Mass., USA) was used as a positive control for the methylated MSP reaction, whereas DNA from normal lymphocytes was used as a positive control for unmethylated alleles. Water was used as a negative control in both reactions.

In assay [3] the test system is INA mRNA expression in colon cancer cell lines. Briefly: Quantitative gene expression of INA in colon cancer cell lines before and after epigenetic drug treatment. The conditions noted are these: for increase in relative expression of INA, the two doses compared: low dose 1 uM versus high dose 10 uM, 72 h, six colon cancer cell lines; for relative expression of INA (fold change, untreated sample as calibrator): six colon cancer cell lines HT29, SW48, HCT15, SW480, RKO, LS1034, AZA 1 or 10 uM 72 h, TSA 0.5 μM 12 h, combination 1 μM AZA 72 h + 0.5 μM TSA last 12 h. As to the method:
(§1) Gene expression was measured in 6 colon cancer cell lines before and after treatment with epigenetic drugs. The relative expression levels of SPG20, INA and CNRIP1 in the colon cancer cell lines (n=6) was measured. […] The mean expression of ACTB and GUSB was used as endogenous control. TaqMan real-time fluorescence detection (Applied Biosystems, Foster city, CA) was used to quantify mRNA levels in the colon cancer cell lines, as previously described [Gibson et al. and Heid et al.]. cDNA was generated from five μg total RNA using a High-Capacity cDNA Archive kit (Applied Biosystems), including random primers according to the manufacturers' protocol. cDNA from the genes of interest (SPG20, INA and CNRIP1) and the endogenous controls (ACTB and GUSB) were amplified separately by the 7900HT Sequence Detection System (Applied Biosystems) following the protocol recommended by supplier. All samples were analyzed in triplicates. The expression levels were calculated as fold changes using the […] method and the untreated sample as a calibrator. In order to adjust for the possibly variable amounts of cDNA input in each PCR, we normalized the expression quantity of the target genes with the housekeeping genes ACTB and GUSB. Six colon cancer cell lines, HCT15, HT29, SW48, SW480, RKO and LS1034 were subjected to treatment with the demethylating drug 5-aza-2'deoxycytidine (1 μM for 72 h and 10 uM for 72 h), the histone deacetylase inhibitor trichostatin A (0.5 μM for 12 h) and a combination of both (1 μM 5-aza-2'deoxycytidine for 72 h, 0.5 μM trichostatin A added the last 12 h).

The subject of assay [4] is SPG20 mRNA expression in colon cancer cell lines. Briefly: Quantitative gene expression of SPG20 in colon cancer cell lines before and after epigenetic drug treatment. The note with it: for increase in relative expression of SPG20, the two doses compared: low dose 1 uM versus high dose 10 uM, 72 h, six colon cancer cell lines; for relative expression of SPG20 (fold change, untreated sample as calibrator): six colon cancer cell lines HT29, SW48, HCT15, SW480, RKO, LS1034, AZA 1 or 10 uM 72 h, TSA 0.5 μM 12 h, combination 1 μM AZA 72 h + 0.5 μM TSA last 12 h. The method, then: as §1

In assay [5] the test system is CNRIP1 mRNA expression in colon cancer cell lines. Briefly: Quantitative gene expression of CNRIP1 in colon cancer cell lines before and after epigenetic drug treatment. The conditions noted are these: for increase in relative expression of CNRIP1, the two doses compared: low dose 1 uM versus high dose 10 uM, 72 h, six colon cancer cell lines; for relative expression of CNRIP1 (fold change, untreated sample as calibrator): six colon cancer cell lines HT29, SW48, HCT15, SW480, RKO, LS1034, AZA 1 or 10 uM 72 h, TSA 0.5 μM 12 h, combination 1 μM AZA 72 h + 0.5 μM TSA last 12 h. The method, then: as §1

[6] abbreviates: colon cancer cell lines HT29 and HCT15 (FIG. 9).
The mark [7] stands for this setting: listed as 5-aza-2′deoxycytidine.

Consider `Nc1ncn([C@H]2C[C@H](O)[C@@H](CO)O2)c(=O)n1` [5-aza-2′-deoxycytidine], for which the “MAL mRNA expression” value in assay [1] (HCT15 cells) was “more moderate levels”; in assay [1] (HT29 cells) it was “high expression”; in assay [1] (setting [6]), “up-regulated mRNA expression”. The “promoter methylation of MAL (MSP)” value in assay [2] is recorded as “Decreased promoter methylation”. Moreover, the “increase in relative expression of INA, the two doses compared” value is on record as “comparable effects” in assay [3] and “comparable increases” in assay [3] (setting [7]). In addition, the “relative expression of INA (fold change, untreated sample as calibrator)” value in assay [3] is on record as “Up-regulated mRNA expression”. Further, the “increase in relative expression of SPG20, the two doses compared” value in assay [4] was “comparable effects”; in assay [4] (setting [7]), “comparable increases”. In assay [4], the “relative expression of SPG20 (fold change, untreated sample as calibrator)” value was “Up-regulated mRNA expression”. In addition, the “increase in relative expression of CNRIP1, the two doses compared” value in assay [5] is listed as “comparable effects”; in assay [5] (setting [7]) it was “comparable increases”. In addition, the “relative expression of CNRIP1 (fold change, untreated sample as calibrator)” value in assay [5] is listed as “Up-regulated mRNA expression”.
Turning to `CC(/C=C/C(=O)NO)=C\[C@@H](C)C(=O)c1ccc(N(C)C)cc1` [trichostatin A], the “MAL mRNA expression” value in assay [1] (setting [6]) was “did not increase MAL expression”. Also, in assay [3], the “relative expression of INA (fold change, untreated sample as calibrator)” value is reported as “did not increase the gene expression”. For the same molecule, the “relative expression of SPG20 (fold change, untreated sample as calibrator)” value in assay [4] was “did not increase the gene expression”. The “relative expression of CNRIP1 (fold change, untreated sample as calibrator)” value in assay [5] was “did not increase the gene expression”.
